Results as given in patent US8017391B2, “Human liver cancer cell line” (Univesity of Florida Research Foundation, Inc., priority 2006, dated 2011).

Test system: LH86 cells or Huh7.5 cells
Assay: Tumor growth of implanted HCV susceptible cell lines in immune deficient mice
Assay type: in vivo
Conditions: injection of human EGF to NOD-SCID mice bearing subcutaneous tumor cells
Protocol: To establish a mouse model that is capable of supporting the whole viral life cycle, the present inventors implanted HCV susceptible cell lines (LH86 cells of the present invention or Huh7.5 cells) to immune deficient mice (NOD-SCID). When 1×10^6 cells were injected subcutaneously into the mice, visible tumor (0.5 cm) formed in one week, and the tumor continued to grow to 5 cm in size in 6 weeks. For LH86 cells, 5×10^6 tumor cells must be injected to achieve a similar tumor growth pattern.

Substance: human EGF: human EGF injected to mice (NSDSECPLSHDGYCLHDGVCMYIEALDKYACNCVVGYIGERCQYRDLKWWELR; UniProt P01133 971-1023, looked up)
- tumor growth rate: significantly accelerate
